The kinase profiling compilation of Christmann-Franck et al. (2016)

Columns and labels:
Experiment in all cases: KINOMEscan competition binding
Conditions in all cases: compound 10.0 µM
AAK1 (human) = AAK1 (human) (UniProt Q2M2I8)
[1] = tested on: ABL1 (human), P00519 [M351T]
ACVR1B (human) = ACVR1B (human) (UniProt P36896)
ADCK4 (human) = ADCK4 (human) (UniProt Q96D53)
AKT3 (human) = AKT3 (human) (UniProt Q9Y243)
BMPR1B (human) = BMPR1B (human) (UniProt O00238)
BMPR2 (human) = BMPR2 (human) (UniProt Q13873)
CAMK2G (human) = CAMK2G (human) (UniProt Q13555)
CDK11B (human) = CDK11B (human) (UniProt P21127)
CDK19 (human) = CDK19 (human) (UniProt Q9BWU1)
CHEK1 (human) = CHEK1 (human) (UniProt O14757)
DAPK1 (human) = DAPK1 (human) (UniProt P53355)
Sequence of DAPK1 (human) (P53355 whole entry, looked up): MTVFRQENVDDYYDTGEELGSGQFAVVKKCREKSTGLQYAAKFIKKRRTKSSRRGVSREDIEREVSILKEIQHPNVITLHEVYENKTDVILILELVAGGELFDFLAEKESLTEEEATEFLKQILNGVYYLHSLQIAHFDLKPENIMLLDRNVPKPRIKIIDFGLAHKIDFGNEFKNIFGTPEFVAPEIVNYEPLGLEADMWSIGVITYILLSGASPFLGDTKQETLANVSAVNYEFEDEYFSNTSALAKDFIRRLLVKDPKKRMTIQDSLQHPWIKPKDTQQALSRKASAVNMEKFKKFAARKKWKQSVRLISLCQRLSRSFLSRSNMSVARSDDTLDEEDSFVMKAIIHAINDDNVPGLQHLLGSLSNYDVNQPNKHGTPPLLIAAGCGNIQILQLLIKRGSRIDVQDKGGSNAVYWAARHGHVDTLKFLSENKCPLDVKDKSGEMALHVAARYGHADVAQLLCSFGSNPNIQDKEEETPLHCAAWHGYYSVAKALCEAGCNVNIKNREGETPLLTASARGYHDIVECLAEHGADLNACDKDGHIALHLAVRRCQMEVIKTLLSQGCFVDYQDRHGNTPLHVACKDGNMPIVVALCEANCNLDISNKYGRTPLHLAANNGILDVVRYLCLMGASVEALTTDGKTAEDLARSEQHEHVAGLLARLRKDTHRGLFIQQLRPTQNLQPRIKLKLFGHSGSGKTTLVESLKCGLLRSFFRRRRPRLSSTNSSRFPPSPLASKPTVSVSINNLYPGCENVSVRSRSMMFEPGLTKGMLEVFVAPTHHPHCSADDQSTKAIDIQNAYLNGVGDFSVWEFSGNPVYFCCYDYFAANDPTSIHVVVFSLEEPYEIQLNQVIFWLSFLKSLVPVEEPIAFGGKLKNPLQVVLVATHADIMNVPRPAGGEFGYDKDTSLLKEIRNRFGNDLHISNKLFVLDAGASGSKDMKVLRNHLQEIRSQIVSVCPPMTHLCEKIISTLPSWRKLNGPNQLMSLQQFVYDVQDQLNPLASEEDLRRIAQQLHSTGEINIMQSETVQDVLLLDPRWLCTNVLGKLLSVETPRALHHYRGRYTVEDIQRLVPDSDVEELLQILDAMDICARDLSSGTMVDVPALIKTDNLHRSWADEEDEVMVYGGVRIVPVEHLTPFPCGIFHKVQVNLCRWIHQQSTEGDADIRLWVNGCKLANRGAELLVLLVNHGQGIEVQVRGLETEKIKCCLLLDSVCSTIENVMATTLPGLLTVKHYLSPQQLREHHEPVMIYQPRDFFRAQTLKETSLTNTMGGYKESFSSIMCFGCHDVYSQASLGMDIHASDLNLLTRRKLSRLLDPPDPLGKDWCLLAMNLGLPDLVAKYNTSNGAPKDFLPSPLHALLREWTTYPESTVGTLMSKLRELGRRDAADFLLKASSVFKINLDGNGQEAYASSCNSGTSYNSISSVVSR

DCLK3 (human) = DCLK3 (human) (UniProt Q9C098)
EIF2AK2 (human) = EIF2AK2 (human) (UniProt P19525)
EPHA1 (human) = EPHA1 (human) (UniProt P21709)
Sequence of EPHA1 (human) (P21709 whole entry, looked up): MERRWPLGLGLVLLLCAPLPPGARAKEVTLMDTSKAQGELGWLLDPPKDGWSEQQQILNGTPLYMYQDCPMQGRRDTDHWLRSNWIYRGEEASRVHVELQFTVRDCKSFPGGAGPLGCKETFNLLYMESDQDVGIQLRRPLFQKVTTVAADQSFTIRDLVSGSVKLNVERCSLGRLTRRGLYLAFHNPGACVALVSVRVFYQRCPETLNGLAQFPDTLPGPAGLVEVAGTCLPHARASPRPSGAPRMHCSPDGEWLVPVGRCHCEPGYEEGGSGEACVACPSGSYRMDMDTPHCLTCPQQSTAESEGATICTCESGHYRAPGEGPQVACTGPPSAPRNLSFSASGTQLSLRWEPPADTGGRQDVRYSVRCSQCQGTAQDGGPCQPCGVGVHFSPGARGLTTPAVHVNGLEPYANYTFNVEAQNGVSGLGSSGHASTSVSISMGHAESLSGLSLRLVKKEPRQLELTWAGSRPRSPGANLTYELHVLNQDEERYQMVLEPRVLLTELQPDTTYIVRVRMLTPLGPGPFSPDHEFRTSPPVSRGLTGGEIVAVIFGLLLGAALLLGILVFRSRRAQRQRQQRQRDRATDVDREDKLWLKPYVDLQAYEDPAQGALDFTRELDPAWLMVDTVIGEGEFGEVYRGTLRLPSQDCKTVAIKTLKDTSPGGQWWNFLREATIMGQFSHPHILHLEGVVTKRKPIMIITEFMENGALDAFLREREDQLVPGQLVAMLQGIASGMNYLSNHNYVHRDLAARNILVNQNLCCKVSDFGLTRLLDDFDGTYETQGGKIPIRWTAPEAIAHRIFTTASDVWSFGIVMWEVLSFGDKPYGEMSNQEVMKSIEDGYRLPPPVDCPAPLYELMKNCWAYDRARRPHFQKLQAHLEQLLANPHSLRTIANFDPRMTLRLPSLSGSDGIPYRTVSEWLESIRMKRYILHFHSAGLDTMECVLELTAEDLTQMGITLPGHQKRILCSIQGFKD

EPHA2 (human) = EPHA2 (human) (UniProt P29317)
EPHA5 (human) = EPHA5 (human) (UniProt P54756)
FLT3 (human) = FLT3 (human) (UniProt P36888)
FLT4 (human) = FLT4 (human) (UniProt P35916)
HCK (human) = HCK (human) (UniProt P08631)
ITK (human) = ITK (human) (UniProt Q08881)
MAP2K1 (human) = MAP2K1 (human) (UniProt Q02750)
MAP2K3 (human) = MAP2K3 (human) (UniProt P46734)
MAPK10 (human) = MAPK10 (human) (UniProt P53779)
MAPK13 (human) = MAPK13 (human) (UniProt O15264)
MERTK (human) = MERTK (human) (UniProt Q12866)
Sequence of MERTK (human) (Q12866 whole entry, looked up): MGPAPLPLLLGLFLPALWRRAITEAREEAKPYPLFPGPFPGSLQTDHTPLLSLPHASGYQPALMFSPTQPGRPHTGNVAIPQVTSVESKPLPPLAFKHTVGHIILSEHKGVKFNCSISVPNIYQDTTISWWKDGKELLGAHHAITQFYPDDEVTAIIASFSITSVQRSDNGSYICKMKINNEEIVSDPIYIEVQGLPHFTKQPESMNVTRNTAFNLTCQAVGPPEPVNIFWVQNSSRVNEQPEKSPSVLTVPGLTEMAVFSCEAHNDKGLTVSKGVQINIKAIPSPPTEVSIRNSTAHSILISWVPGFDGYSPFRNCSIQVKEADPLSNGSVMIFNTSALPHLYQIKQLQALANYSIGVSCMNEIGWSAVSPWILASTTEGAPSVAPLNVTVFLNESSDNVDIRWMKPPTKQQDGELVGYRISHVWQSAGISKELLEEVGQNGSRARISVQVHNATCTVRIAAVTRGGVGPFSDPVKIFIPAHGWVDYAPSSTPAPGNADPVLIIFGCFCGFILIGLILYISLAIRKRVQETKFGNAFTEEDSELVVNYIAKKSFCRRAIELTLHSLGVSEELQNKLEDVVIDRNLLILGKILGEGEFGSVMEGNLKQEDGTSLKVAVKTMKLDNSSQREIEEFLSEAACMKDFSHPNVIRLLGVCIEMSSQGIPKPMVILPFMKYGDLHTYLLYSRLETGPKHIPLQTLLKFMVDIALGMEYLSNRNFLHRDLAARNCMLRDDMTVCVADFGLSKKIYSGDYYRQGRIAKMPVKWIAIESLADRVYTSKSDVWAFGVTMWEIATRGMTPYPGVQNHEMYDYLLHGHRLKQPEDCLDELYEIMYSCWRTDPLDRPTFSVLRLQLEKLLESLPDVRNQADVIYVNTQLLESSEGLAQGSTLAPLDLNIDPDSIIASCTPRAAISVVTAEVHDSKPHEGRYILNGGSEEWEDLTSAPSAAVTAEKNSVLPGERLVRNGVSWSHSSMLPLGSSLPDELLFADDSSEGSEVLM

MINK1 (human) = MINK1 (human) (UniProt Q8N4C8)
MUSK (human) = MUSK (human) (UniProt O15146)
NEK1 (human) = NEK1 (human) (UniProt Q96PY6)
PHKG2 (human) = PHKG2 (human) (UniProt P15735)
PRKAA2 (human) = PRKAA2 (human) (UniProt P54646)
PRKD3 (human) = PRKD3 (human) (UniProt O94806)
RIPK1 (human) = RIPK1 (human) (UniProt Q13546)
Sequence of RIPK1 (human) (Q13546 whole entry, looked up): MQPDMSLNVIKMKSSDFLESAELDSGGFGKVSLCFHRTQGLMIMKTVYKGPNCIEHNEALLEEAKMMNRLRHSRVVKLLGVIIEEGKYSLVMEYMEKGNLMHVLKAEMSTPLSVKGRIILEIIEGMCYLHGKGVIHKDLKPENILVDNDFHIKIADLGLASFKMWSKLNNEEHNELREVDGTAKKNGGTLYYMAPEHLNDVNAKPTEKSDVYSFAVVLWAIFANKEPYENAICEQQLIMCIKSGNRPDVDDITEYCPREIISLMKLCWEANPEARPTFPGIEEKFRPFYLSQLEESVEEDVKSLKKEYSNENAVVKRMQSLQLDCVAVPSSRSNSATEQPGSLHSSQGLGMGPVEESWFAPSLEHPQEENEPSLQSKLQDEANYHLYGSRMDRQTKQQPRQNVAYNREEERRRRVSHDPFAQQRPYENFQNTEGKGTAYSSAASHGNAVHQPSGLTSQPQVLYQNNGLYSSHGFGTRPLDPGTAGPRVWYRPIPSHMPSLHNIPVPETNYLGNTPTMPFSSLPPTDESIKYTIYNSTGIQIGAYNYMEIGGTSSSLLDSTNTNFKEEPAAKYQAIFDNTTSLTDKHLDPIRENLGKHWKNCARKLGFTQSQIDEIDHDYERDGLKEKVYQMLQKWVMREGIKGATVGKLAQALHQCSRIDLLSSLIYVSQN

SIK1 (human) = SIK1 (human) (UniProt P57059)
SRC (human) = SRC (human) (UniProt P12931)
STK32C (human) = STK32C (human) (UniProt Q86UX6)
TEC (human) = TEC (human) (UniProt P42680)
YES1 (human) = YES1 (human) (UniProt P07947)
Sequence of YES1 (human) (P07947 whole entry, looked up): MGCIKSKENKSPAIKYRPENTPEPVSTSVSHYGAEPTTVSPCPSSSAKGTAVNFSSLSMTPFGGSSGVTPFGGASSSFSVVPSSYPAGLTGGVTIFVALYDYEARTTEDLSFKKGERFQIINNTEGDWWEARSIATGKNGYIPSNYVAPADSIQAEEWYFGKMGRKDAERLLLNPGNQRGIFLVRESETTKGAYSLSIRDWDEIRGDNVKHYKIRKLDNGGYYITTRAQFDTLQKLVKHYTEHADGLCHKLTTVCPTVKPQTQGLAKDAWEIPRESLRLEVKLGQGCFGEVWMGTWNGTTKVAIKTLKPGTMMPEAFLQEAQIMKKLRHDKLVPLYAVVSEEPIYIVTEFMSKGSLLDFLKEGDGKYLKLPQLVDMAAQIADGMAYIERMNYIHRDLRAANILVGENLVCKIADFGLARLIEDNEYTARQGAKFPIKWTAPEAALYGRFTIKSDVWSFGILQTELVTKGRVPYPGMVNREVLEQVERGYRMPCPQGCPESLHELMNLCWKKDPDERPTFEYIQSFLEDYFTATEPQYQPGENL

CSNK1D (human) = CSNK1D (human) (UniProt P48730)
STK3 (human) = STK3 (human) (UniProt Q13188)

Sequence of AKT3 (human) (Q9Y243 whole entry, looked up): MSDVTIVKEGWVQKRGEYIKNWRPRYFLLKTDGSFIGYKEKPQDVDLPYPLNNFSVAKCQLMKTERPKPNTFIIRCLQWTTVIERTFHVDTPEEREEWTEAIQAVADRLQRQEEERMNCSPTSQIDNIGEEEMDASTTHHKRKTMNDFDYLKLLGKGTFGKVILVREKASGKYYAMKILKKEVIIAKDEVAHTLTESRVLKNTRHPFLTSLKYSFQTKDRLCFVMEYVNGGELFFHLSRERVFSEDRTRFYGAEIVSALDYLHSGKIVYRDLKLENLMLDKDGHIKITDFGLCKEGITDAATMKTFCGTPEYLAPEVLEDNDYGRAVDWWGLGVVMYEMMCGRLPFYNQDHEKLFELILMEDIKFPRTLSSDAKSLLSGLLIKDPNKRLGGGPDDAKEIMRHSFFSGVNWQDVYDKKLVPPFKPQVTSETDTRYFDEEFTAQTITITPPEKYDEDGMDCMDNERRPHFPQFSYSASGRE

SMILES	kinase still bound, per cent of control (AAK1 (human))	kinase still bound, per cent of control [1]	kinase still bound, per cent of control (ACVR1B (human))	kinase still bound, per cent of control (ADCK4 (human))	kinase still bound, per cent of control (AKT3 (human))	kinase still bound, per cent of control (BMPR2 (human))	kinase still bound, per cent of control (CAMK2G (human))	kinase still bound, per cent of control (CDK11B (human))	kinase still bound, per cent of control (CDK19 (human))	kinase still bound, per cent of control (DAPK1 (human))	kinase still bound, per cent of control (DCLK3 (human))	kinase still bound, per cent of control (EIF2AK2 (human))	kinase still bound, per cent of control (EPHA1 (human))	kinase still bound, per cent of control (EPHA2 (human))	kinase still bound, per cent of control (EPHA5 (human))	kinase still bound, per cent of control (FLT3 (human))	kinase still bound, per cent of control (FLT4 (human))	kinase still bound, per cent of control (HCK (human))	kinase still bound, per cent of control (ITK (human))	kinase still bound, per cent of control (MAP2K1 (human))	also measured
CC[C@@H]1C(=O)N(C)c2cnc(Nc3ccc(C(=O)NC4CCN(C)CC4)cc3OC)nc2N1C1CCCC1	100%	100%	100%	100%	100%	100%	100%	100%	100%	5.4%	100%	100%	100%	100%	100%	100%	100%	100%	100%	100%	kinase still bound, per cent of control (BMPR1B (human)): 100%; kinase still bound, per cent of control (CHEK1 (human)): 100%; kinase still bound, per cent of control (MAP2K3 (human)): 100%; kinase still bound, per cent of control (MAPK10 (human)): 100%; kinase still bound, per cent of control (MAPK13 (human)): 100%; kinase still bound, per cent of control (MERTK (human)): 100%; kinase still bound, per cent of control (MINK1 (human)): 100%; kinase still bound, per cent of control (MUSK (human)): 100%; kinase still bound, per cent of control (NEK1 (human)): 100%; kinase still bound, per cent of control (PHKG2 (human)): 20%; kinase still bound, per cent of control (PRKAA2 (human)): 100%; kinase still bound, per cent of control (PRKD3 (human)): 10%; kinase still bound, per cent of control (RIPK1 (human)): 100%; kinase still bound, per cent of control (SIK1 (human)): 100%; kinase still bound, per cent of control (SRC (human)): 100%; kinase still bound, per cent of control (STK32C (human)): 100%; kinase still bound, per cent of control (TEC (human)): 100%; kinase still bound, per cent of control (YES1 (human)): 100%
CCC(=O)N1CCN(c2ccc(-n3c(=O)ccc4cnc5ccc(-c6cnc7ccccc7c6)cc5c43)cc2C(F)(F)F)CC1	75%	100%	45%	15%	77%	59%	79%	97%	1.2%	96%	97%	88%	62%	59%	100%	16%	74%	77%	100%	100%	kinase still bound, per cent of control (CSNK1D (human)): 4.3%; kinase still bound, per cent of control (MAP2K3 (human)): 80%; kinase still bound, per cent of control (MAPK10 (human)): 31%; kinase still bound, per cent of control (MAPK13 (human)): 39%; kinase still bound, per cent of control (MERTK (human)): 53%; kinase still bound, per cent of control (MINK1 (human)): 19%; kinase still bound, per cent of control (MUSK (human)): 100%; kinase still bound, per cent of control (NEK1 (human)): 89%; kinase still bound, per cent of control (PHKG2 (human)): 100%; kinase still bound, per cent of control (PRKAA2 (human)): 74%; kinase still bound, per cent of control (PRKD3 (human)): 100%; kinase still bound, per cent of control (RIPK1 (human)): 1.9%; kinase still bound, per cent of control (SIK1 (human)): 80%; kinase still bound, per cent of control (SRC (human)): 95%; kinase still bound, per cent of control (STK3 (human)): 24%; kinase still bound, per cent of control (STK32C (human)): 100%; kinase still bound, per cent of control (TEC (human)): 99%; kinase still bound, per cent of control (YES1 (human)): 74%
CCCS(=O)(=O)Nc1ccc(F)c(C(=O)c2c[nH]c3ncc(-c4ccc(Cl)cc4)cc23)c1F	100%	55%	78%	100%	100%	57%	95%	100%	0.8%	83%	47%	81%	82%	99%	98%	2.4%	82%	13%	100%	10%	kinase still bound, per cent of control (BMPR1B (human)): 67%; kinase still bound, per cent of control (CSNK1D (human)): 97%; kinase still bound, per cent of control (MAPK10 (human)): 91%; kinase still bound, per cent of control (MAPK13 (human)): 100%; kinase still bound, per cent of control (MERTK (human)): 60%; kinase still bound, per cent of control (MINK1 (human)): 38%; kinase still bound, per cent of control (MUSK (human)): 99%; kinase still bound, per cent of control (NEK1 (human)): 100%; kinase still bound, per cent of control (PHKG2 (human)): 100%; kinase still bound, per cent of control (PRKAA2 (human)): 63%; kinase still bound, per cent of control (PRKD3 (human)): 44%; kinase still bound, per cent of control (RIPK1 (human)): 63%; kinase still bound, per cent of control (SIK1 (human)): 2.8%; kinase still bound, per cent of control (SRC (human)): 3.4%; kinase still bound, per cent of control (STK3 (human)): 1.9%; kinase still bound, per cent of control (STK32C (human)): 100%; kinase still bound, per cent of control (TEC (human)): 100%; kinase still bound, per cent of control (YES1 (human)): 18%
